According to article PMC7211037 (Journal of bone and mineral research : the official journal …, 2016):

Key:
CaSR [1] = molecular target: T1, CaSR (Homo sapiens, UniProt P41180); assay: Intracellular calcium mobilization assay in HEK-CaSR cells; type: cell-based; settings: for Maximal response of Ca^2+ (intracellular Ca^2+): normalized to 7.49 mM Ca^2+ + vehicle in pcDNA3.1 cells
T1 sequence (P41180 20-536 limits assumed): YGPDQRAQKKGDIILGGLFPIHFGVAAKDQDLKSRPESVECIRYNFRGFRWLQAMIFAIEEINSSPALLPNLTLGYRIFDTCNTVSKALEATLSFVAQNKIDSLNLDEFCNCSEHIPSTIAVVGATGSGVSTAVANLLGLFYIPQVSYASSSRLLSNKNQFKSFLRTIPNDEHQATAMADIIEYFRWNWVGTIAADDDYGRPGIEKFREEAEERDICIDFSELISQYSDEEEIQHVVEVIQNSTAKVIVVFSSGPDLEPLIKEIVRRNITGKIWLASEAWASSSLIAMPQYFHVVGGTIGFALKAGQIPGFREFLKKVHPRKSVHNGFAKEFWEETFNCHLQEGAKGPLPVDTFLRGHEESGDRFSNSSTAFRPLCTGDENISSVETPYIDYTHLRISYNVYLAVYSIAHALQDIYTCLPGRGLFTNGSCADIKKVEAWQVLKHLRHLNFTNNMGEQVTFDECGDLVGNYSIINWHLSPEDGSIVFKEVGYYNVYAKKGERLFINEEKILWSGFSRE

CaSR [2] = molecular target: T1, CaSR; assay: cAMP accumulation assay in HEK-CaSR cells; type: cell-based; settings: 3 mM Ca^2+; GPR64ΔNTF-transfected HEK-CaSR cells (Fig. 7C)
[3] = system: human parathyroid adenoma cells; assay: PTH secretion from freshly isolated parathyroid adenoma cells; type: cell-based; settings: increasing concentrations of Ca^2+, 30 min at 37°C; normalized to vehicle in 0.5 mM Ca^2+; representative of five independent experiments
CaSR [4] = molecular target: T1, CaSR; settings: patients; cited from earlier work
[5] = full-length GPR64-transfected HEK-CaSR cells, vehicle, mean ± SE

Compound	Hill slope of Ca^2+ (intracellular Ca^2+) (CaSR [1]; [5])	pEC50 of Ca^2+ (intracellular Ca^2+) (CaSR [1]; [5])	Maximal response of Ca^2+ (intracellular Ca^2+) (CaSR [1]; [5]) [%]	Maximal response of Ca^2+ (intracellular Ca^2+) (CaSR [1]; pcDNA3.1-transfected HEK-CaSR cells, vehicle, mean ± SE) [%]	Intracellular Ca^2+ levels (in words) (CaSR [1]; vehicle-treated pcDNA3.1-transfected HEK-CaSR cells)	cAMP level with Ca^2+ (in words) (CaSR [2])	PTH secretion (in words) [3]	Serum Ca^2+ normalization (in words) (CaSR [4])
[Ca+2].[Cl-].[Cl-] [Ca^2+, calcium chloride]	2.915 ± 0.159	3.566 ± 0.010	101.70 ± 0.762	101.5 ± 1.177	elevated the intracellular Ca^2+ levels in a concentration-dependent manner	reduced this effect, the cAMP level was still higher than that of cells transfected with empty vector in normocalcemic conditions	suppressed PTH secretion in a dose-dependent manner	–
C[C@@H](NCCCc1cccc(C(F)(F)F)c1)c1cccc2ccccc12 [cinacalcet]	–	–	–	–	–	–	–	normalize the serum Ca^2+ in a significant percentage of patients
